Assay results as given in patent US12146168B2, “Human CGAS-DNA complex and encoded protein” (priority 2018, dated 2024).
Residue numbers refer to the chain shown, from its start. Names and notes keep the numbering of the source. “Also recorded” adds a separate entry of the source.

B1: hcGAS K187N/L195R (protein, UniProt Q8N884 1-522, looked up, variant K187N L195R)
Cyclic GMP-AMP synthase: MQPWHGKAMQRASEAGATAPKASARNARGAPMDPTESPAAPEAALPKAGKFGPARKSGSRQKKSAPDTQERPPVRATGARAKKAPQRAQDTQPSDATSAPGAEGLEPPAAREPALSRAGSCRQRGARCSTKPRPPPGPWDVPSPGLPVSAPILVRRDAAPGASKLRAVLEKLKLSRDDISTAAGMVNGVVDHLLRRLKCDSAFRGVGLLNTGSYYEHVKISAPNEFDVMFKLEVPRIQLEEYSNTRAYYFVKFKRNPKENPLSQFLEGEILSASKMLSKFRKIIKEEINDIKDTDVIMKRKRGGSPAVTLLISEKISVDITLALESKSSWPASTQEGLRIQNWLSAKVRKQLRLKPFYLVPKHAKEGNGFQEETWRLSFSHIEKEILNNHGKSKTCCENKEEKCCRKDCLKLMKYLLEQLKERFKDKKHLDKFSSYHVKTAFFHVCTQNPQDSQWDRKDLGLCFDNCVTYFLQCLRTEKLENYFIPEFNLFSSNLIDKRSKEFLTKQIEYERNNEFPVFDEF
B2: L195R (protein, listed as Homo sapiens)
chain: B1 Cyclic GMP-AMP synthase with N187K
B3: K187N (protein, listed as Homo sapiens)
chain: B1 Cyclic GMP-AMP synthase with R195L

Legend:
45 bp dsDNA = experiment: In vitro cGAS-DNA complex formation, electrophoretic mobility shift analysis; type: binding; settings: 45 bp DNA, gradient dialysis
Method: cGAS-DNA complexes were stably assembled using a method adapted from a nucleosome assembly gradient dialysis protocol (Lee and Narlikar (2001) Current protocols in molecular biology Chapter 21, Unit 21.26), and complex formation was measured by electrophoretic mobility shift analysis. Briefly, a concentration gradient of recombinant protein (0.2, 0.4, 2, 10 μM) was incubated with 45 bp dsDNA (2 μM) in a high-salt buffer containing 20 mM HEPES-NaOH pH 7.8, […], 1 mM DTT at 4° C. for 20 min. The reconstitution mixture was then transferred into 8-10 kDa molecular weight cut-off dialysis tubing (Spectrum Labs), and placed into a beaker of the high-salt buffer. The KCl concentration was reduced gradually by slowly replacing high-salt buffer with low-salt buffer (20 mM HEPES-KOH pH 7.5, 50 mM KCl, 1 mM DTT) with a peristaltic pump (Bio-Rad) at a rate of […] for 48 hr at 4° C. After gradient dialysis, reactions were supplemented to 5% glycerol, and subsequently separated on a 2% agarose gel in 0.5×TBE buffer at 4° C. Agarose gels were stained in a solution containing 10 μg ml^−1 ethidium bromide and visualized with a ChemiDoc™ MP Imaging System (Bio-Rad). Alternatively, where indicated in FIGS. 8A and 8C, cGAS-DNA complexes were assembled by incubating directly in reaction buffer containing 20 mM HEPES-NaOH pH 7.8, […], 1 mM DTT at 4° C. for 20 min and analyzed by electrophoretic mobility shift analysis as indicated above.

V. cholerae = V. cholerae chemotaxis assay (overexpressed cGAMP synthases); type: cell-based, Vibrio cholerae; settings: overexpression as MBP N-terminal fusion, arabinose induced
Method: V. cholerae strains were cultured at 37° C. on LB media (1% tryptone, 0.5% yeast extract, 0.5% NaCl w/v), stored at −80° C. in LB supplemented with 30% glycerol, and were all derivatives of streptomycin resistant C6706 dncV: Tn (to remove endogenous 3′3′ cGAMP synthesis) (Davies et al. (2012) Cell 149:358-370). Where appropriate, antibiotics and supplemented nutrients were used at the following concentrations: streptomycin (100 μg ml^−1), carbenicillin (100 μg ml^−1), and diaminopimelic acid (300 μg ml^−1). hcGAS (D157-F522) and mcGAS (P147-L507) were codon optimized for bacterial expression (Genscript and IDT respectively), and all cGAS enzymes and control genes were overexpressed from a custom plasmid pBAD24T, a conjugation-proficient version of pBAD24 that harbors an arabinose inducible promoter and a strong ribosomal binding site (Guzman et al. (1995) J Bacteriol 177:4121-4130) that was further modified to include a new multiple cloning site. All genes overexpressed in V. cholera were encoded as MBP N-terminal fusions except the MBP alone negative control vector (Table 5).
[…]. V. cholerae chemotaxis assays were performed as previously described (Davies et al. (2012) Cell 149:358-370). Briefly, chemotaxis medium (1% tryptone, 0.5% NaCl, 0.3% agar w/v) was prepared, autoclaved, and stored at 2x concentration; and chemotaxis plates were prepared 2-24 h prior to inoculation. 2x medium was melted, diluted to 1× with sterile water, and supplemented with 0.2% (w/v) arabinose. Deep-well plates (OmniTray w/Lid, Thermo Fisher) were poured at 40 ml/plate. Overnight, stationary phase cultures (16-24 h post inoculation) were diluted 10-fold with fresh LB, arrayed in a 96-well plate, then applied to the surface of a chemotaxis plate via pinning with a 96-pin, floating pin replicator (VP 408FH, V&P Scientific). Alternatively, 1 μl of diluted culture was applied to the surface of chemotaxis agar by pipetting. Chemotaxis plates were incubated at 30° C. for 16-24 h.
Chemotaxis was quantified by imaging plates at 16-24 h post inoculation and digitally measuring the area of motile bacteria using ImageJ (Schneider et al. (2012) Nat Methods 9:671-675). Chemotaxis area was normalized to MBP alone vector for each experiment for expression of “chemotaxis as a % of MBP”. Values were transformed into “chemotaxis repression” by calculating (chemotaxis as a % of MBP)-1, then normalizing this value to dncV. Chemotaxis repression was determined and used to simplify a direct relationship between cGAMP levels and plotted values.

17 bp DNA = experiment: In vitro cGAS 2′3′ cGAMP synthesis assay, DNA length specificity; type: biochemical
Method: […]. Briefly, 1 μM cGAS ([…], SEQ ID NO: 6; antisense: 5′-[…]-3′, SEQ ID NO: 7) (Stetson and Medzhitov (2006) Immunity 24:93-103) in the 20 μl reaction buffer containing 50 mM Tris-HCl pH 7.5, 35 mM KCl, 5 mM Mg(OAc)2, 1 mM DTT, 25 μM ATP, 25 μM GTP, and [α-^32P] ATP (˜1 μCi) at 37° C. for 30 min. Reactions were terminated by heating at 95° C. for 3 min, and subsequently incubated with 4 U of alkaline phosphatase (New England Biolabs) at 37° C. for 30 min to hydrolyze unreacted NTPs. One microliter of each reaction was spotted on a PEI-Cellulose F thin-layer chromatography plate (EMD Biosciences) developed with 1.5 M KH2PO4 (pH 3.8) as a running buffer. Radiolabeled products were detected by Typhoon Trio Variable Mode Imager system (GE Healthcare) and quantified with ImageQuant 5.2. […]. Briefly, ATP/GTP titrations (0, 5, 10, 25, 50, 100, 200, 400, 800, and 1000 μM) were performed in the presence of fixed cGAS (1 μM) and 45 bp dsDNA concentration (1.5 μM) in 10 μl of reaction buffer containing 50 mM Tris-HCl pH 7.5, 35 mM KCl, 5 mM Mg(OAc)2, 1 mM DTT, and [α-^32P] ATP (˜1 μCi) at 37° C. for 5 min. Reactions were terminated and analyzed using thin layer chromatography as indicated above. The ATP-dependent cGAS enzyme kinetics were plotted and fitted according to Michaelis-Menten substrate inhibition analysis in GraphPad Prism (version 7.0c).

V. cholerae genomic DNA = experiment: In vitro cGAS 2′3′ cGAMP synthesis assay with bacterial genomic DNA; type: biochemical, Vibrio cholerae; settings: purified V. cholerae genomic DNA
[1] = tested on: 45 bp double-stranded interferon stimulatory DNA; experiment: In vitro cGAS 2′3′ cGAMP synthesis assay; type: biochemical; settings: for 2′3′ cGAMP synthesis: 45 bp DNA
Method: […]. Briefly, 1 μM cGAS (or other concentration as indicated) was incubated with a 45 bp double-stranded interferon stimulatory DNA (sense: 5′-[…]-3′, SEQ ID NO: 6; antisense: 5′-[…]-3′, SEQ ID NO: 7) (Stetson and Medzhitov (2006) Immunity 24:93-103) in the 20 μl reaction buffer containing 50 mM Tris-HCl pH 7.5, 35 mM KCl, 5 mM Mg(OAc)2, 1 mM DTT, 25 μM ATP, 25 μM GTP, and [α-^32P] ATP (˜1 μCi) at 37° C. for 30 min. Reactions were terminated by heating at 95° C. for 3 min, and subsequently incubated with 4 U of alkaline phosphatase (New England Biolabs) at 37° C. for 30 min to hydrolyze unreacted NTPs. One microliter of each reaction was spotted on a PEI-Cellulose F thin-layer chromatography plate (EMD Biosciences) developed with 1.5 M KH2PO4 (pH 3.8) as a running buffer. Radiolabeled products were detected by Typhoon Trio Variable Mode Imager system (GE Healthcare) and quantified with ImageQuant 5.2. […]. Briefly, ATP/GTP titrations (0, 5, 10, 25, 50, 100, 200, 400, 800, and 1000 μM) were performed in the presence of fixed cGAS (1 μM) and 45 bp dsDNA concentration (1.5 μM) in 10 μl of reaction buffer containing 50 mM Tris-HCl pH 7.5, 35 mM KCl, 5 mM Mg(OAc)2, 1 mM DTT, and [α-^32P] ATP (˜1 μCi) at 37° C. for 5 min. Reactions were terminated and analyzed using thin layer chromatography as indicated above. The ATP-dependent cGAS enzyme kinetics were plotted and fitted according to Michaelis-Menten substrate inhibition analysis in GraphPad Prism (version 7.0c).

| Molecule | lower molecular weight minimal cGAS-DNA complex formation (45 bp dsDNA) | V. cholerae chemotaxis repression (V. cholerae) | 2′3′ cGAMP synthesis / enzyme activation in response to short DNA (17 bp DNA) | higher-order cGAS-DNA complex formation (45 bp dsDNA) | other results |
| --- | --- | --- | --- | --- | --- |
| mcGAS | formed two types of DNA complexes | potently arrested chemotaxis | recognized both 45 bp and 17 bp DNA with near equal efficiency |  | 2′3′ cGAMP synthesis in response to bacterial genomic DNA (V. cholerae genomic DNA): produces more 2′3′ cGAMP than hcGAS |
| hcGAS |  | no loss of chemotaxis | remained inactive | preferentially formed higher-order oligomeric complexes | enhanced 2′3′ cGAMP synthesis versus wild type hcGAS [1]: > 15 fold; 2′3′ cGAMP synthesis ([1]; listed as hcGAS*): activity comparable to wildtype mcGAS; catalytic efficiency of 2′3′ cGAMP synthesis, fold less efficient than mcGAS ([1]; varying ATP concentration, Michaelis-Menten with substrate inhibition): ~20 fold |
| dncV |  | inhibited chemotaxis |  |  |  |
| B1 | restored the ability of hcGAS to form a stable lower molecular weight protein-DNA complex | potently inhibited V. cholerae chemotaxis | full enzyme activation | unaffected | 2′3′ cGAMP synthesis [1]: elevated 2′3′ cGAMP synthesis; also recorded: dramatically enhanced 2′3′ cGAMP synthesis; enzyme kinetics of 2′3′ cGAMP synthesis ([1]; varying ATP concentration, compared to mcGAS): nearly equal to mcGAS |
| B2 |  | Neither K187N nor L195R alone was sufficient to enhance hcGAS activity |  |  |  |
| B3 |  | Neither K187N nor L195R alone was sufficient to enhance hcGAS activity |  |  |  |
